Data on 6 molecules can be found in patent US20230257385A1, “SALT AND SOLID FORMS OF TABERNANTHALOG” (priority 2021, published 2023).

The nature of data set [1]: Examination of variability of fusion temperature of sorbate Form A (DSC). Format: physicochemical. As to the method: The factors that were assessed to explain the observed variability in fusion temperature found amongst Form A samples were sample loading, preferred orientation and particle size/homogeneity (Table 271). A weak relationship between sample loading and melt onset was observed, the remainder of the factors examined, appeared to be unrelated.
DSC data were collected from 25 to 220C at a scan rate of at 10° C. min^−1 (Table 292).

Data set [2] is described as follows: DVS 0 to 90 to 0% RH (mass equilibrated). The data set is classed as physicochemical. The note with it: batch 8-A4.
Where [3] appears, read: DSC 25-220° C. at 10° C. min^−1, batches of sorbate salt Form A.
Where [4] appears, read: DSC 25 to 220C at 10° C. min−1, tabernanthalog sorbate Form A samples.
The mark [5] stands for this setting: DSC melt endset, 25 to 220C at 10° C. min−1, tabernanthalog sorbate Form A samples.
Where [6] appears, read: DSC melt peak, 25 to 220C at 10° C. min−1, tabernanthalog sorbate Form A samples.

For the molecule `C/C=C/C=C/C(=O)O.COc1ccc2c3c([nH]c2c1)CCN(C)CC3` [Experiment 6-Sample C1], in data set [1] (setting [3]), the Endset worked out at 151.0 °C, the melt enthalpy is −100.5 Jg^−1, the melt onset amounted to 144.7 °C and the peak is 148.8 °C. Moreover, in data set [1] (setting [4]), the melt enthalpy is listed as −100.48 Jg-1 and the melt onset amounted to 144.66 °C. Further, in data set [1] (setting [5]), the Endset was found to be 151.02 °C. The peak in data set [1] (setting [6]) is 148.83 °C.

Regarding `C/C=C/C=C/C(=O)O.COc1ccc2c3c([nH]c2c1)CCN(C)CC3` [Pattern A1270-20-V2], in data set [1] (setting [3]), the Endset was found to be 152.0 °C, the melt enthalpy is given as −84.1 Jg^−1, the melt onset is 143.9 °C and the peak is 148.8 °C. In data set [1] (setting [4]), the melt enthalpy is listed as −84.09 Jg-1 and the melt onset is 143.89 °C. The Endset in data set [1] (setting [5]) was determined as 151.95 °C. The peak in data set [1] (setting [6]) is 148.83 °C.

As to `COc1ccc2c3c([nH]c2c1)CCN(C)CC3` [fumarate], the “DVS 0 to 90 to 0% RH (dm/dt <0.002%)” value in data set [2] (desorption, 5.0% RH) came out at 0.1179%; in data set [2] (desorption, 10.0% RH) it was 0.1551%; in data set [2] (desorption, 15.0% RH) it was 0.1857%; in data set [2] (desorption, 20.0% RH), 0.2126%; in data set [2] (desorption, 25.0% RH) it was 0.2387%; in data set [2] (desorption, 30.0% RH) it was 0.2656%. The “DVS 0 to 90 to 0% RH (dm/dt <0.002%)” value in data set [2] (desorption, 40.0% RH) is given as 0.3210%; in data set [2] (desorption, 50.0% RH), 0.3797%; in data set [2] (desorption, 60.0% RH), 0.4515%; in data set [2] (desorption, 70.0% RH) it was 0.5442%; in data set [2] (desorption, 80.0% RH), 0.6827%; in data set [2] (desorption, 90.0% RH), 0.9766%. Besides, the “DVS 0 to 90 to 0% RH (dm/dt <0.002%)” value is on record as “DVS 0 to 90 to 0% RH (dm/dt <0.002%): 0.0 (0.0004%), 5.0” in data set [2] (sorption, 0.0% RH); 0.0627% in data set [2] (sorption, 5.0% RH); 0.0957% in data set [2] (sorption, 10.0% RH); 0.1397% in data set [2] (sorption, 15.0% RH); 0.1778% in data set [2] (sorption, 20.0% RH); 0.2093% in data set [2] (sorption, 25.0% RH). Moreover, the “DVS 0 to 90 to 0% RH (dm/dt <0.002%)” value in data set [2] (sorption, 30.0% RH) stood at 0.2401%; in data set [2] (sorption, 40.0% RH) it was 0.3145%; in data set [2] (sorption, 50.0% RH), 0.4051%; in data set [2] (sorption, 70.0% RH) it was 0.5451%; in data set [2] (sorption, 80.0% RH), 0.6660%; in data set [2] (sorption, 90.0% RH), 0.9766%.

Turning to `C/C=C/C=C/C(=O)O.COc1ccc2c3c([nH]c2c1)CCN(C)CC3` [Experiment 7-Sample A neat], the Endset in data set [1] (setting [3]) was determined as 148.5 °C; in data set [1] (setting [5]), 148.53 °C. The values for the melt enthalpy in data set [1] (setting [3]) and in data set [1] (setting [4]) were −122.5 Jg^−1 and −122.47 Jg-1, respectively. Besides, the figures for the melt onset in data set [1] (setting [3]) and in data set [1] (setting [4]) were 144.4 °C and 144.39 °C, respectively. Moreover, the peak in data set [1] (setting [3]) was 146.8 °C; in data set [1] (setting [6]), 146.83 °C.

`C/C=C/C=C/C(=O)O.COc1ccc2c3c([nH]c2c1)CCN(C)CC3` [Experiment 6-Sample D1]: in data set [1] (setting [3]), the Endset stood at 150.2 °C, the melt enthalpy is listed as −105.7 Jg^−1, the melt onset amounted to 144.0 °C and the peak came to 148.0 °C. In addition, in data set [1] (setting [4]), the melt enthalpy was −166.35 Jg-1 and the melt onset was 144.03 °C. The Endset in data set [1] (setting [5]) came out at 150.17 °C. In data set [1] (setting [6]), this molecule registered a peak of 148.00 °C.

On to `C/C=C/C=C/C(=O)O.COc1ccc2c3c([nH]c2c1)CCN(C)CC3` [Experiment 6-Sample E1], for which, in data set [1] (setting [3]), the Endset worked out at 151.6 °C, the melt enthalpy is given as −105.7 Jg^−1, the melt onset worked out at 145.0 °C and the peak amounted to 148.8 °C. In data set [1] (setting [4]), this molecule returned a melt enthalpy of −105.68 Jg-1 and a melt onset of 145.00 °C. In data set [1] (setting [5]), this molecule gave an Endset of 151.59 °C. For the same molecule, the peak in data set [1] (setting [6]) was determined as 148.83 °C.
